Laboratory results reported in patent US20170273917A1, “NMDA RECEPTOR ANTAGONISTS FOR TREATING GAUCHER DISEASE” (Yeda Research and Development Co. Ltd., priority 2014, published 2017).

Legend:
Format in all cases: in vivo, mouse
[1] = system: CD68-positive cells in cortical layer V; experiment: Immunohistochemistry of CD68-positive cells in cortical layer V of the brain
Description: Immunohistochemistry—Mice were sacrificed and whole brains were fixed in 4% paraformaldehyde:PBS overnight at 4° C. Tissues were washed in PBS and sectioned with a microtome. Forty micrometer coronal sections were processed free floating in 2% BSA, 0.2% Triton X-100, PBS through all blocking, antibody incubation, and wash steps. Sections were incubated overnight at 4° C. with primary anti rat CD68 (AbD Serotec, Oxford, UK; 1:1000). Following washes, sections were incubated with secondary Cy2-conjugated donkey anti-rat antibody (1:200, Jackson). The presence of CD68-positive cells in cortical layer V of the brain was analyzed using an epifluorescent microscope (Zeiss).
To verify the results of Example 1, the presence of CD68-positive cells in the cortical layer V of the brain was analyzed in two exemplary strains, AKR/J (average mortality on day 24) and BTBR T^+ITPR3TF/J (100% mortality on day 199).

Grin2b = experiment: Cortical Grin2b mRNA levels by qPCR; settings: 10 days CBE vs PBS; short living (A/J, C57BL6/JolaHsd) and long living (NZW, FVB) strains
Description: RNA extraction and quantitative PCR Following treatment, mice were sacrificed and their brains removed, placed on a Young Mouse Brain Slicer Matrix (BSMYS001-1, Zivic instruments, Pittsburgh, Pa., USA) and cut into 1 mm coronal sections. The cerebral cortex was separated using a spatula and snap-frozen in liquid N2 and stored at −80° C. Total RNA was isolated using the RNeasy mini kit (Qiagen GmbH, Hilden, Germany) according to manufacturer's instructions. Quantitative polymerase chain reaction (Q-PCR) was performed using PerfeCTa SYBR Green FastMix (Quanta BioSciences, Gaithersburg, Md., USA) and an ABI Prism 7300 Sequence Detection System (Applied Biosystems, Foster City, Calif., USA). […] Fold-change in mRNA levels was calculated using the comparative cycle threshold method using TATA box binding protein (TBP) for normalization. P-values were calculated using a two-tailed, two-independent sample Student's t-test. […]
Based on the predictive studies described above, the involvement of Grin2b in the pathogenesis of neuropathic GD was evaluated. […] Since non-coding SNPs can regulate the expression of quantitative trait locus (QTL), the mRNA levels of Grin2b were determined by qPCR. […] The transcript levels was determined in 2 short living (A/J and C57BL6/JolaHsd) and 2 long living strains (NZW and FVB) 10 days following PBS or CBE treatment.

[2] = system: GlcCer, GlcSo, GalCer, GalSo levels in the brain; experiment: Sphingolipid analysis (LC-ESI-MS/MS) of brains of treated mice; settings: P18
Description: Sphingolipid analysis—LC-ESI-MS/MS was performed using an ABI 4000 quadrupole-linear ion trap mass spectrometer as previously described (Farfel-Becker et al. Hum Mol Genet. 2014; 23(4):843-54). The sphingolipid internal standards were obtained from Avanti Polar Lipids (Alabaster, Ala., USA).
In the next step, the consequences of GBA1 inhibition, GlcCer accumulation, was analyzed. As expected, CBE-treated mice presented higher levels of GlcCer in the brain in comparison to the controls. The average elevation in GlcCer levels in CBE-treated brains was 3.7-fold compared to PBS-treated mice (FIG. 3C). C18, the most abundant GlcCer species in the brain, was the main GlcCer species elevated (not shown). Importantly, there was no correlation between the levels of GlcCer in the brain and life spans either in the PBS(R^2=0.1441, data not shown) or CBE conditions (R^2=0.0569, FIG. 3C). There was also no correlation between the change in GlcCer levels in each strain and the life spans (R^2=0.0311, data not shown). In addition, no correlation was found between each individual GlcCer subspecies (C14, C16, C18:1, C18, C20, C22, C24:1, C24, C26:1, and C26) and life spans under PBS and CBE conditions (data not shown).
Glucosylsphingosine (GlcSo) is another lipid known to be elevated in GD and it has been proposed as a GD biomarker (Rolfs et al. PLoS One. 2013 Nov. 20; 8(11):e79732). An average elevation of ˜36-fold in GlcSo levels was found in the CBE-treated brains as compared to the controls (FIG. 3D). The potential correlation between GlcSo levels and the life spans of mice was explored—no correlation was found either under PBS(R^2=0.068, data not shown), or in the CBE-treated brains (R^2=0.0013, FIG. 3D). Similarly to the other lipids, there was no correlation between the change in GlcSo levels and mice life spans (R^2=0.0775, data not shown).
In addition, GalCer and GalSo levels were analyzed in the brains of the treated mice (FIGS. 3E-3F).

**Q.** Which results are given for `O[C@H]1[C@H](O)[C@@H](O)[C@@H]2O[C@@H]2[C@@H]1O` [CBE, Conduritol-β-epoxide]?
**A.** brain pathology (CD68-positive cells, cortical layer V) ([1]; AKR/J mice treated with CBE, sacrificed P22): overt brain pathology; brain pathology (CD68-positive cells, cortical layer V) and mortality ([1]; BTBR T+ITPR3TF/J mice treated with CBE, sacrificed P208): less sensitive to CBE both in terms of mortality and brain pathology; Grin2b expression levels (cortical mRNA, qPCR) (Grin2b): increased only in the short-living strains; average elevation in GlcCer levels in the brain ([2]; CBE-treated brains compared to PBS-treated mice): 3.7 fold; average elevation in GlcSo levels in the brain ([2]; CBE-treated brains compared to controls): ~36 fold; GalCer levels in the brain ([2]; CBE-treated mice vs PBS): no elevation; GalSo levels in the brain ([2]; CBE-treated mice vs PBS): no elevation
